From US11076597B2, “High stress resistant plant growth regulator and preparation method and use thereof” (SHANGHAI INSTITUTES FOR BIOLOGICAL SCIENCES, CHINESE …, priority 2015, dated 2021)
Entries after “also recorded” stand apart in the source; their conditions may differ. Where two headings read alike, the source gives them in different places.

Columns and labels:
[1] = molecular target: T1, PYL2 receptor-HAB1 protein phosphatase complex (Arabidopsis thaliana, UniProt O80992); experiment: AlphaScreen assay, PYL2 receptor binding to HAB1; type: biochemical; conditions: fraction of the EC50 of ABA; FIG. 2c, 2e-2g
T1 construct: made in house; host or cells: E. coli BL21 (DE3)
T1 sequence (O80992 14-188): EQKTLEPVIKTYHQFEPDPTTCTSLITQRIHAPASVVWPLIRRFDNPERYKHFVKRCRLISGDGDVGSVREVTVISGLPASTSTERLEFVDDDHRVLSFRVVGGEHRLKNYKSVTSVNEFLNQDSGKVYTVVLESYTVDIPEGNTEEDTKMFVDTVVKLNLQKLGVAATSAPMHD
T1 sequence (Q9CAJ0 172-511 partner limits assumed): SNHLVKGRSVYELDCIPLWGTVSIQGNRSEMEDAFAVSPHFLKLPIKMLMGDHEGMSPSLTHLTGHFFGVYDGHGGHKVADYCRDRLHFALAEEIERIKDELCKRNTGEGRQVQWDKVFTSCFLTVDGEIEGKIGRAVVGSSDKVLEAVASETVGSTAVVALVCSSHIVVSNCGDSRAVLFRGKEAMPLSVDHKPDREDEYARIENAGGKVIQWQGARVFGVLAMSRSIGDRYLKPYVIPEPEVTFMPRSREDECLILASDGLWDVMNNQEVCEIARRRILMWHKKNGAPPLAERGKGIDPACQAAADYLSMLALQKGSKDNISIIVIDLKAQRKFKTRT
Description: (§1) The AlphaScreen kit (available from Perkin Elmer) was used, and the method was as follows: a 10× buffer (50 mM MOPS, pH 7.4, 50 mM NaF, 50 mM CHAPS, 0.1 mg/ml bovine serum albumin) diluted at 1:10, each of 100 nM HAB1 with Biotin tag sequence and PYR1/PYL1/PYL2/PYL7/GmPYL6/OsPYL2 protein with dual tags of 6×His and SUMO sequences, corresponding concentrations of (+)-ABA/0224/0304/0706/0708/0713/0715/0428/NC0F4, and 5 μg/ml donor beads and acceptor beads (available from Perkin Elmer) were contained in 150 μl of experimental system. After incubating for 1.5 hours at room temperature in the dark, it was placed into an Envision Plate Reader (available from Perkin Elmer) under the programmed AlphaScreen procedure for readings.
(§2) AlphaScreen technology was used to test the ability of the compounds of the present invention to promote PYL receptor binding to PP2C protein phosphatase (HAB1).

[2] = molecular target: T1, PYL2 receptor-HAB1 protein phosphatase complex; experiment: AlphaScreen assay: promotion of PYL2 receptor binding to PP2C protein phosphatase HAB1; conditions: 6×His-SUMO-tagged PYL2 (aa 14-188), Biotin-tagged HAB1 (aa 172-511), 100 nM each, pH 7.4, 1.5 h room temperature, read-out: EC50
Excerpt: (§3) The construction method of recombinant plasmids for the Arabidopsis thaliana genes PYL1 (amino acid sequence 36-211), PYL2 (amino acid sequence 14-188) with dual tags of 6×His and SUMO sequence and the Arabidopsis thaliana gene HAB1 (amino acid sequence 172-511) with the Biotin tag sequence is described in detail in “A gate-latch-lock mechanism for hormone signaling by abscisic acid receptors” (Nature, Vol 462, 2009). The construction method of recombinant plasmids for PYR1 and PYL7 (whole gene coding sequence) and Soybean GmPYL6 and rice OsPYL2 with dual tags of 6×His and SUMO sequence is the same as that for Arabidopsis PYL2.
(§4) The above recombinant plasmid is transformed into competent cell of E. coli BL21 (DE3) (purchased from NEB company), and inoculated into 200 ml of LB liquid medium containing Amp resistance (purchased from OXOID company) and cultured overnight at 37° C. at 200 rpm; and inoculated into 2 L of LB liquid medium containing Amp resistance at a ratio of 1:50-1:100 for an extended culture, and cultured at 37° C., 200 rpm for 3-4 hours, and at a low temperature of 16° C. until OD600 is about 0.8-1.0. Recombinant plasmids for PYR1/PYL1/PYL2/PYL7/GmPYL6/OsPYL2 with dual tags of 6×His and SUMO sequence were induced overnight with 100 μM of IPTG while HAB1 recombinant plasmid with the Biotin tag sequence was induced simultaneously with 100 μM of IPTG and 40 μM of biotin.
(§5) After 16 hours of induction, the bacterial solution was centrifuged at 4000 rpm for 20 minutes at 4° C. in a low-speed high-capacity centrifuge, and the bacteria cells were collected. Bacteria cells were resuspended in 50 ml of extraction buffer (containing 20 mM Tris, pH 8.0, 200 mM NaCl and 10% (v/v) glycerol) for per 2 L of bacterial solution and then subjected to pressure-breaking at […] and 4° C. for 3-5 times. The broken cells were subjected to ultracentrifugation, centrifuged at 16000 rpm for 30 minutes, and this process was repeated twice. The supernatant was collected and subjected to an affinity chromatography column.
(§6) For PYR/PYL proteins with dual tags of 6×His and SUMO sequences, 50 ml of affinity chromatography Ni column (50 ml Ni-NTA column, available from GE) was used. Firstly, the column was equilibrated with 600 ml of 10% buffer B (containing 20 mM Tris, PH 8.0, 200 mM NaCl, 500 mM imidazole and 10% glycerol), and then eluted with 200 ml of 50% buffer B and finally eluted with 100 ml of 100% buffer B. Proteins for crystal analysis were mixed with ulp1 enzyme at a molar ratio of 1000:1 for enzymatic dialysis overnight. The digested proteins were subjected to affinity chromatography on a Ni column once more. The collected solution was subjected to a HiLoad 26/60 Superdex200 gel filtration column (commercially available from GE) and eluted with an elution solution (containing 25 mM Tris, pH 8.0, 200 mM ammonium acetate, 1 mM dithiotreitol and 1 mM EDTA) to further separate and purify the protein.
For a HAB1 protein with a Biotin tag sequence, it was subjected to a 50 ml MBP affinity column (available from GE). The column was firstly equilibrated with 600 ml of 10% buffer C (containing 20 mM Tris, pH 8.0, 200 mM NaCl, 10 mM Maltose and 10% Glycerol), and eluted with 200 ml of 50% buffer C and finally eluted with 100 ml of 100% buffer C. The collection solution was subjected to a HiLoad 26/60 Superdex200 gel filtration column and eluted with an elution solution (containing 20 mM Tris, pH 8.0, 200 mM NaCl and 10% Glycerol) to further separate and purify the protein. […]

[3] = system: ABA-induced environmental stress-related gene (COR15a, COR47, RAB18 and RD29b); experiment: Gene expression analysis (fluorescence quantitative PCR); type: in vivo, Arabidopsis thaliana (Col-0); conditions: 10 μM, 6 hours, 10-day-aged seedlings; FIG. 10
Description: The whole plant or leaves were taken, and RNA extraction was carried out by using conventional methods. After reverse transcription, the fluorescence quantitative PCR was carried out. Three biological samples were taken for each treatment which was performed twice. The ACT7 gene was used as a reference gene.

[4] = molecular target: T2, PYL2 receptor-HAB1 complex (Arabidopsis thaliana, UniProt O80992); experiment: HAB1 phosphatase activity assay (SnRK2.6 phosphorylated polypeptide as substrate); type: biochemical; conditions: FIG. 1a-1g; 100 nM HAB1, 500 nM PYL2
T2 construct: made in house; host or cells: E. coli BL21 (DE3)
T2 sequence (O80992 14-188): T1 sequence (O80992 14-188)
T2 sequence (Q9CAJ0 172-511 partner limits assumed): T1 sequence (Q9CAJ0 172-511 partner limits assumed)
Description: 50 mM imidazole, pH 7.2, 5 mM MgCl2, 0.1% β-mercaptoethanol, 0.5 μg·ml^−1 BSA, 100 nM HAB1 protein with a Biotin tag sequence, 500 nM PYL2 receptor protein with 6×His-SUMO dual tag sequence and the corresponding concentration of (+)-ABA/0224/0304/0706/0708/0713/0715/1028c/0428/1022B/NC0F4 were contained in the reaction system. The reaction system was incubated at room temperature for 30 minutes, followed by a further reaction for 30 minutes after adding an 11-amino acid phosphorylated polypeptide as a substrate. The phosphorylated polypeptide is amino acid 170-180 of SnRK2.6 protein kinase, wherein phosphorylated serine at position 175 (with a sequence of HSQPKpSTVGTP, purchased from Kingsley Company) was a known HAB1 dephosphorylation target site. After 30 minutes, chromogenic reagent (purchased from BioVision) was added and the absorbance at 650 nm was read on a microplate reader (Molecular Devices).

[5] = molecular target: T3, PYR1 receptor-HAB1 protein phosphatase complex (Arabidopsis thaliana, UniProt O49686); experiment: AlphaScreen assay: promotion of PYR1 receptor binding to PP2C protein phosphatase HAB1; conditions: FIG. 2h; 6×His-SUMO-tagged PYR1 (whole coding sequence), Biotin-tagged HAB1 (aa 172-511), 100 nM each; pH 7.4; 1.5 h room temperature; read-out: EC50
T3 construct: made in house; host or cells: E. coli BL21 (DE3)
T3 sequence (O49686 1-191): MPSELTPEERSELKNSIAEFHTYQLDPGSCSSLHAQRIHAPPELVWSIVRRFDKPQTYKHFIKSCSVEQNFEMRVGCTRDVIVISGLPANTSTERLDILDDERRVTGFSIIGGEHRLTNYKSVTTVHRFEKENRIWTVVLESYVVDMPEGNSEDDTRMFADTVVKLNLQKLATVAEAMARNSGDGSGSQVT
T3 sequence (Q9CAJ0 172-511 partner limits assumed): T1 sequence (Q9CAJ0 172-511 partner limits assumed)
Excerpt: as §3, §4, §5, §6
For a HAB1 protein with a Biotin tag sequence, it was subjected to a 50 ml MBP affinity column (available from GE). The column was firstly equilibrated with 600 ml of 10% buffer C (containing 20 mM Tris, pH 8.0, 200 mM NaCl, 10 mM Maltose and 10% Glycerol), and eluted with 200 ml of 50% buffer C and finally eluted with 100 ml of 100% buffer C. […]

[6] = molecular target: T3, PYR1 receptor-HAB1 protein phosphatase complex; experiment: AlphaScreen assay, PYR1 receptor binding to HAB1; type: biochemical; conditions: fraction of the EC50 of ABA; FIG. 2a, 2h
Description: as §1, §2

Row | SMILES | EC50 value with PYL2 receptor-HAB1 complex as fraction of that of ABA [1] | EC50 ([2]; FIG. 2g) [nM] | expression level of COR15a, COR47, RAB18 and RD29b [3] | inhibition of HAB1 protein phosphatase activity by promoting binding between PYL2 receptor and HAB1 [4] | EC50 [5] [nM] | EC50 value with PYR1 receptor-HAB1 complex as fraction of that of ABA [6] | EC50 ([2]; FIG. 2e) [nM]
1 | CCCn1c(=O)ccc2cc(NS(=O)(=O)Cc3ccc(C)cc3)ccc21 [Compound 1022B] | one order of magnitude lower than that of ABA | 180 | all higher than those of ABA; also recorded: significantly increased | inhibiting the activity of protein phosphatase HAB1; also recorded: inhibiting the dephosphorylation effect of HAB1 on SnRK2.6 phosphorylated polypeptide | – | – | –
2 | CCCN1C(=O)NCc2cc(NS(=O)(=O)Cc3c(F)c(F)c(C)c(F)c3F)ccc21 [Compound NC0F4] | better PYL2 receptor affinity over ABA | – | – | inhibiting the activity of protein phosphatase HAB1; also recorded: inhibiting the dephosphorylation effect of HAB1 on SnRK2.6 phosphorylated polypeptide | 373 | about 1/11 | –
3 | Cc1c(F)c(F)c(CS(=O)(=O)Nc2ccc3c(c2)C(C)OC(=O)N3CC(C)C)c(F)c1F (stereo not drawn) [Compound 0713] | ⅕-⅛ | – | – | inhibiting the activity of protein phosphatase HAB1; also recorded: inhibiting the dephosphorylation effect of HAB1 on SnRK2.6 phosphorylated polypeptide | – | – | 181
4 | CCCN1C(=O)NC(C)c2cc(NS(=O)(=O)Cc3c(F)c(F)c(C)c(F)c3F)ccc21 (stereo not drawn) [Compound 1028c] | – | – | – | inhibiting the activity of protein phosphatase HAB1; also recorded: inhibiting the dephosphorylation effect of HAB1 on SnRK2.6 phosphorylated polypeptide | – | – | –
5 | Cc1c(F)c(F)c(CS(=O)(=O)Nc2ccc3c(c2)C(C)OC(=O)N3C(C)C)c(F)c1F (stereo not drawn) [Compound 0708] | ⅕-⅛ | – | – | inhibiting the activity of protein phosphatase HAB1; also recorded: inhibiting the dephosphorylation effect of HAB1 on SnRK2.6 phosphorylated polypeptide | – | – | 136
